Test results as given in patent US20220248673A1, “FUNGICIDAL COMBINATIONS, MIXTURES AND COMPOSITIONS AND USES THEREOF” (priority 2019, published 2022).

Columns and labels:
[1] = tested on: Z. tritici strain Mg Tri-R6; test: Efficacy on first-leaf fragments of treated wheat plantlets cv. Alixan inoculated with Z. tritici, AUDPC-based (Examples 1-3); assay type: in vivo, Zymoseptoria tritici; conditions: from AUDPC (21 and 28 dpi), percent of untreated control
Protocol: Winter wheat plants cv. Alixan (Limagrain) at the BBCH 12 growth stage are treated with a mixture of the compound of Formula I and a fungicide selected from the group consisting of fluindapyr, pydiflumetofen, mefentrifluconazole, fenpicoxamid, inpyrfluxam and isofetamid.
The compound of Formula I and the fungicide (A) are applied at different rates and at different weight ratio with a hand sprayer at 2 bars calibrated. For each condition tested, three replicates (pots) of 6 wheat plants are used.
Fragments of the first leaf are cut and are transferred into a Petri dish containing adapted water agar (6 leaf fragments per Petri dish). Fragments are inoculated with a calibrated pycnospores suspension of Z. tritici strain Mg Tri-R6.
After inoculation, Petri dishes are incubated in a climatic chamber having a temperature of 20° C. day/17° C. night, photoperiod of 16 h light/8 h dark, and controlled relative humidity. Disease assessments are carried out 21 days post inoculation (dpi) and 28 dpi by measuring the length of the necrosis of the leaf fragment. The intensity of infection is then determined as a percent of the total length of the leaf fragment.
The efficacy is calculated based on the Area Under the Disease Progress Curve (AUDPC) which is a quantitative measure of disease intensity over time. The most commonly used method for estimating the AUDPC, the trapezoidal method, is performed for each time interval by multiplying the average disease intensity between each pair of adjacent time points by the corresponding time interval.
The fungicide efficacies are determined from the AUDPC values and expressed as a percent of the untreated control.
The compound of Formula I and mefentrifluconazole were applied with a hand sprayer at 2 bars calibrated to deliver the equivalent of 200 L/ha. Three replicates (pots) of 6 wheat plants each were used for each treatment group.
Fragments of the first leaf were cut and transferred into a Petri dish containing adapted water agar (6 leaf fragments per Petri dish). Fragments were inoculated with a calibrated pycnospores suspension of Z. tritici strain Mg Tri-R6.
After inoculation, Petri dishes were incubated in a climatic chamber having a temperature of 20° C. day/17° C. night, photoperiod of 16 h light/8 h dark, and controlled relative humidity. Disease assessments were carried out 21 days post inoculation (dpi) and 28 dpi by measuring the length of the necrosis of the leaf fragment. The intensity of infection was then determined as percent of the total length of the leaf fragment.
(§1) The efficacy was calculated based on the Area Under the Disease Progress Curve (AUDPC) which is a quantitative measure of disease intensity over time. The most commonly used method for estimating the AUDPC, the trapezoidal method, was performed for each time interval by multiplying the average disease intensity between each pair of adjacent time points by the corresponding time interval.
(§2) The fungicide efficacies were determined from the AUDPC values and expressed as a percent of the untreated control.
The compound of Formula I and fenpicoxamid were applied with a hand sprayer at 2 bars calibrated to deliver the equivalent of 200 L/ha. […]
After inoculation, Petri dishes were incubated in a climatic chamber having a temperature of 20° C. day/17° C. night, photoperiod of 16 h light/8 h dark and controlled relative humidity. […] The intensity of infection was then determined as percent of the total length of the leaf fragment. […]

[2] = tested on: Z. tritici strain Mg Tri-R6; test: Efficacy on first-leaf fragments of treated wheat plantlets cv. Alixan inoculated with Z. tritici, AUDPC-based (Example 4, pydiflumetofen); assay type: in vivo, Zymoseptoria tritici; conditions: from AUDPC (21 and 28 dpi)
Protocol: Winter wheat plants cv. Alixan (Limagrain) at the BBCH 12 growth stage were treated with mixture of Compound of Formula I and pydiflumetofen at several rates with a hand sprayer at 2 bars calibrated to deliver the equivalent of 200 L/ha. The Compound of Formula I was applied at 5 g a.i./ha. Pydiflumetofen was applied at 0.00032-0.0016 and 0.008 g a.i./ha. Three replicates (pots) of 6 wheat plants each were used for each condition tested.
After treatment, wheat plants were left to dry at room temperature for 1 hour and then incubated in a climatic chamber having a temperature of 24° C. day/18° C. night, photoperiod of 16 h light/8 h dark and a relative humidity of 65%. Fragments of the first leaf were cut and transferred in Petri dish containing adapted water agar (6 leaf fragments per Petri dish). Fragments were inoculated with a calibrated pycnospores suspension of Z. tritici strain Mg Tri-R6.
After inoculation, Petri dishes were incubated in a climatic chamber having a temperature of 20° C. day/17° C. night, photoperiod of 16 h light/8 h dark and controlled relative humidity.
Disease assessments were carried out 21 days post inoculation (dpi) and 28 dpi by measuring the length of the necrosis of the leaf fragment. The intensity of infection was then determined in percent of the total length of the leaf fragment.
as §1, §2

[3] = fungicide (A) alone, rate 0.39 g a.i./ha

CC(O)(Cn1cncn1)c1ccc(Oc2ccc(Cl)cc2)cc1C(F)(F)F (stereo not drawn) [Mefentrifluconazole, 2-[4-(4-chlorophenoxy)-2-(trifluoromethyl)phenyl]-1-(1,2,4-triazol-1-yl)propan-2-ol]
Observed Efficacy [1, 3]: 46.8%

Cc1ccc(S(=O)(=O)n2cc(F)c(=N)n(C)c2=O)cc1 [Compound of Formula I, 5-fluoro-4-imino-3-methyl-1-tosyl-3,4-dihydropyrimidin-2(1H)-one]
Observed Efficacy ([1]; compound of Formula I alone, rate 5 g a.i./ha): 56.4%
Observed Efficacy ([1]; compound of Formula I alone, rate 10 g a.i./ha): 69.1%
Observed Efficacy ([2]; compound of Formula I alone, rate 5 g a.i./ha, Example 4): 63.2%

COc1ccnc(C(=O)N[C@H]2COC(=O)[C@H](Cc3ccccc3)[C@@H](OC(=O)C(C)C)[C@H](C)OC2=O)c1OCOC(=O)C(C)C [Fenpicoxamid, (3S,6S,7R,8R)-8-benzyl-3-{3-[(isobutyryloxy)methoxy]-4-methoxypyridine-2-carboxamido}-6-methyl-4,9-dioxo-1,5-dioxonan-7-yl-isobutyrate]
Observed Efficacy [1, 3]: 56.0%

CC1CC(C)(C)c2c(F)ccc(NC(=O)c3cn(C)nc3C(F)F)c21 (stereo not drawn) [Fluindapyr, 3-(Difluoromethyl)-N-(7-fluoro-2,3-dihydro-1,1,3-trimethyl-1H-inden-4-yl)-1-methyl-1H-pyrazole-4-carboxamide]
Observed Efficacy [1, 3]: 43.5%

CON(C(=O)c1cn(C)nc1C(F)F)[C@@H](C)Cc1c(Cl)cc(Cl)cc1Cl [Pydiflumetofen, 3-(difluoromethyl)-N-methoxy-1-methyl-N-[(2S)-1-(2,4,6-trichlorophenyl)propan-2-yl]-1H-pyrazole-4-carboxamide]
Observed Efficacy ([2]; pydiflumetofen alone, rate 0.00032 g a.i./ha): 21.3%
Observed Efficacy ([2]; pydiflumetofen alone, rate 0.0016 g a.i./ha): 35.6%
Observed Efficacy ([2]; pydiflumetofen alone, rate 0.008 g a.i./ha): 44.0%
